Data: US11149031B2, “Substituted N-(3-fluoropropyl)-pyrrolidine compounds, processes for their preparation and therapeutic uses thereof” (SANOFI, priority 2016, dated 2021)

Key:
ERα in MCF7 cells = ERα in MCF7 cells (Homo sapiens (Human), UniProt P03372); assay: Test C: estrogen receptor degradation activity, ERα in cell western assay in MCF7 cells; type: cell-based; details: for DC50: 4 hours post compound addition, ERα in cell western, read-out: Degradation IC50; for % Degradation at 3 μM: 4 hours, relative to fulvestrant
Chain of ERα in MCF7 cells (P03372 whole entry): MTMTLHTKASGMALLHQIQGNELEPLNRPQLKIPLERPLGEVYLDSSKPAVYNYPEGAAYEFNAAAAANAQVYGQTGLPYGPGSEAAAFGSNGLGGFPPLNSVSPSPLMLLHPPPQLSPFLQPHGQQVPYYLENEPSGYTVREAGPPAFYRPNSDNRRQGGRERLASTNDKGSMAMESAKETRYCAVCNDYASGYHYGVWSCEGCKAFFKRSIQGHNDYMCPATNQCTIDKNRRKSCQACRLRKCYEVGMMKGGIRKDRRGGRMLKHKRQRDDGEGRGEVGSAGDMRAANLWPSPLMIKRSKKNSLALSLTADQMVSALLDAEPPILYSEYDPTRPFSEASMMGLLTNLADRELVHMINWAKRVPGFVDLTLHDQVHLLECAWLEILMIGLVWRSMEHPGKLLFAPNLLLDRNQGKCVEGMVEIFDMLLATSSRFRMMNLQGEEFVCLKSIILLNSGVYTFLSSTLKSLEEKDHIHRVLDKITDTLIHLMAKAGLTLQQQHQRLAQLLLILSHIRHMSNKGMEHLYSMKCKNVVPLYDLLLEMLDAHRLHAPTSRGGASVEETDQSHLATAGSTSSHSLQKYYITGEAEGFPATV
Experimental: Test C: Estrogen Receptor Degradation Activity
Test C involves measuring the in vitro degradation activity of the compounds of the invention.
The measurements of the degradation activities were made using abreast cancer cell ERα in cell western assay as described hereunder.
MCF7 cells (ATCC) were seeded in 384 wells microplate (collagen coated) at concentration of >9990 cells/30 μL per well in red phenol free MEM alpha medium (invitrogen) containing 5% charcoal dextran striped FBS. The following day, 9 points serial 1:5 dilution of each compound were added to the cells in 2.5 μL at final concentrations ranging from 3-0.000018 μM or 0.1 μM for fulvestrant (using as positive control). At 4 hours post compounds addition the cells were fixed by adding 25 μL of formalin (final concentration 5% formalin containing 0.1% triton) for 10 minutes at room temperature and then washed twice with PBS. Then, 50 μL of LI-COR blocking buffer containing 0.1% Triton was added to plate for 30 minutes at room temperature. LI-COR blocking buffer was removed and cells were incubated overnight at cold room with 50 μL anti-ER rabbit monoclonal antibody (Thermo scientific MA1-39540) diluted at 1:>999 in LI-COR blocking buffer containing 0.1% tween-20. Wells which were treated with blocking but no antibody were used as background control. Wells were washed twice with PBS (0.1% tween-20) and incubated at 37° C. for 60 minutes in LI-COR (0.1% tween-20) containing goat anti-rabbit antibody Alexa 488 (1:>999) and Syto-64 a DNA dye (2 μM final concentration). Cells were then washed 3 times in PBS and scanned in ACUMEN explorer (TTP-Labtech). Integrated intensities in the green fluorescence and red fluorescence were measured to determine the levels of ERα and DNA respectively.

[1] = molecular target: His6-ERα298-554 Y537S mutant (ERα ligand-binding domain) (Homo sapiens (Human), UniProt P03372, Y537S); assay: Test A: biochemical antagonist activity, LanthaScreen TR-FRET ERα coactivator assay, Y537S mutant; details: protocol with 3 nM estradiol; read-out: Antagonism Y537S IC50
Chain of His6-ERα298-554 Y537S mutant (ERα ligand-binding domain) (P03372 298-554 Y537S): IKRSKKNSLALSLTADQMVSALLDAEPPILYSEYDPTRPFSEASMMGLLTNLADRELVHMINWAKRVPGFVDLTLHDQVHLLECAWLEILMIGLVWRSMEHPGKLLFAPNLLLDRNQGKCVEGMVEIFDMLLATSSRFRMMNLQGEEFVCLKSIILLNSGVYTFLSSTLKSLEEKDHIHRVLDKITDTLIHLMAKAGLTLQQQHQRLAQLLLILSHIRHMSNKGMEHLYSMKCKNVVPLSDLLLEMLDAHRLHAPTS
Experimental: (§1) Test A: Biochemical Antagonist Activity on Wild Type (WT) and Mutants
(§2) Estrogen Receptors Test A involves measuring the in vitro antagonist activity of the compounds of the invention on estrogen receptors.
(§3) The measurements of the antagonist activities were made using an estrogen receptor coactivator assay as described hereunder.
(§4) Antagonistic potency of compounds was evaluated using LanthaScreen® TR-FRET ERα Coactivator Assay (ThermoFisher) with modifications. […] The assay works in a homogeneous mix-and-read format. In a typical experiment, a 4 μL mixture of 0.5 nM His6-ERα298-554, 0.5 nM Tb-labeled His6 antibody, 250 nM PGC1a peptide, and 3 nM estradiol (or 10 nM estradiol) in 100 mM potassium phosphate, pH 7.4, 0.01% Tween-20, 0.02% NaN3, 5 mM DTT, was added to 40 nL test compound in DMSO and incubated overnight at room temperature. The TR-FRET 520:495 nm emission ratio was calculated and used to determine the IC50 value from a dose response curve fit to the 4-parameter logistic equation.

[2] = molecular target: His6-ERα298-554 D538G mutant (ERα ligand-binding domain) (Homo sapiens (Human), UniProt P03372, D538G); assay: Test A: biochemical antagonist activity, LanthaScreen TR-FRET ERα coactivator assay, D538G mutant; details: protocol with 3 nM estradiol; read-out: Antagonism D538G IC50
Chain of His6-ERα298-554 D538G mutant (ERα ligand-binding domain) (P03372 298-554 D538G): as the sequence (P03372 298-554 Y537S) above, with S240Y, D241G counted along it
Experimental: as §1, §2, §3, §4

[3] = molecular target: His6-ERα298-554 WT (ERα ligand-binding domain) (Homo sapiens (Human), UniProt P03372); assay: Test A: biochemical antagonist activity, LanthaScreen TR-FRET ERα coactivator assay, WT; details: protocol with 3 nM estradiol; read-out: Antagonism WT IC50
Chain of His6-ERα298-554 WT (ERα ligand-binding domain) (P03372 298-554): as the sequence (P03372 298-554 Y537S) above, with S240Y counted along it
Experimental: as §1, §2, §3, §4

Structure (SMILES) | DC50 (ERα in MCF7 cells) [nM] | % Degradation at 3 μM (ERα in MCF7 cells) [%] | IC50 [1] [nM] | IC50 [2] [nM] | IC50 [3] [nM]
Cc1cc(F)ccc1C1=C(c2ccc(O[C@H]3CCN(CCCF)C3)cc2)c2ccc(O)cc2OCC1 [Example 100, 4-(4-fluoro-2-methyl-phenyl)-5-[4-[(3S)-1-(3-fluoropropyl)pyrrolidin-3-yl]oxyphenyl]-2,3-dihydro-1-benzoxepin-8-ol] | 0.2 | 88 | 25 | 54 | 7
Cc1c(Cl)cccc1C1=C(c2ccc(O[C@H]3CCN(CCCF)C3)cc2)c2ccc(O)cc2OCC1 [Example 101, 4-(3-chloro-2-methyl-phenyl)-5-[4-[(3S)-1-(3-fluoropropyl)pyrrolidin-3-yl]oxyphenyl]-2,3-dihydro-1-benzoxepin-8-ol] | 0.6 | 92 | 25 | 50 | 6
Oc1ccc2c(c1)OCCC(c1ccc3c(c1)CCN3)=C2c1ccc(O[C@H]2CCN(CCCF)C2)cc1 [Example 104, 5-[4-[(3S)-1-(3-fluoropropyl)pyrrolidin-3-yl]oxyphenyl]-4-indolin-5-yl-2,3-dihydro-1-benzoxepin-8-ol] | 0.2 | 88 | 23 | 54 | 12
Cc1ccc(C2=C(c3ccc(O[C@H]4CCN(CCCF)C4)cc3)c3ccc(O)c(Cl)c3OCC2)c(F)c1 [Example 108, 9-chloro-4-(2-fluoro-4-methyl-phenyl)-5-[4-[(3S)-1-(3-fluoropropyl)pyrrolidin-3-yl]oxyphenyl]-2,3-dihydro-1-benzoxepin-8-ol] | 3 | 86 | 129 | 221 | 30
Cc1c(Cl)cccc1C1=C(c2ccc(O[C@H]3CCN(CCCF)C3)cc2)c2ccc(O)c(Cl)c2OCC1 [Example 109, 9-chloro-4-(3-chloro-2-methyl-phenyl)-5-[4-[(3S)-1-(3-fluoropropyl)pyrrolidin-3-yl]oxyphenyl]-2,3-dihydro-1-benzoxepin-8-ol] | 1 | 90 | 150 | 215 | 29
Cc1ccc(C2=C(c3ccc(O[C@H]4CCN(CCCF)C4)cc3)c3ccc(O)c(C)c3OCC2)c(F)c1 [Example 111, 4-(2-fluoro-4-methyl-phenyl)-5-[4-[(3S)-1-(3-fluoropropyl)pyrrolidin-3-yl]oxyphenyl]-9-methyl-2,3-dihydro-1-benzoxepin-8-ol] | 6 | 86 | 407 | 822 | 91
Cc1c(Cl)cccc1C1=C(c2ccc(O[C@H]3CCN(CCCF)C3)cc2)c2ccc(O)c(C)c2OCC1 [Example 112, 4-(3-chloro-2-methyl-phenyl)-5-[4-[(3S)-1-(3-fluoropropyl)pyrrolidin-3-yl]oxyphenyl]-9-methyl-2,3-dihydro-1-benzoxepin-8-ol] | 4 | 87 | 543 | 838 | 91
Oc1ccc2c(c1Cl)OCCC(c1ccc3[nH]ccc3c1)=C2c1ccc(O[C@H]2CCN(CCCF)C2)cc1 [Example 114, 9-chloro-5-[4-[(3S)-1-(3-fluoropropyl)pyrrolidin-3-yl]oxyphenyl]-4-(1H-indol-5-yl)-2,3-dihydro-1-benzoxepin-8-ol] | 5 | 71 | 104 | 178 | 29
Oc1ccc2c(c1Cl)OCCC(c1ccc3c(c1)CCN3)=C2c1ccc(O[C@H]2CCN(CCCF)C2)cc1 [Example 115, 9-chloro-5-[4-[(3S)-1-(3-fluoropropyl)pyrrolidin-3-yl]oxyphenyl]-4-indolin-5-yl-2,3-dihydro-1-benzoxepin-8-ol] | 6 | 77 | 200 | 322 | 88
Oc1ccc2c(c1)OCCC(c1cccc3c1CCN3)=C2c1ccc(O[C@H]2CCN(CCCF)C2)cc1 [Example 117, 5-[4-[(3S)-1-(3-fluoropropyl)pyrrolidin-3-yl]oxyphenyl]-4-indolin-4-yl-2,3-dihydro-1-benzoxepin-8-ol] | 3 | 92 | 214 | 309 | 32
Cc1c(O)ccc2c1OCCC(c1ccc3c(c1)CCN3)=C2c1ccc(O[C@H]2CCN(CCCF)C2)cc1 [Example 118, 5-[4-[(3S)-1-(3-fluoropropyl)pyrrolidin-3-yl]oxyphenyl]-4-indolin-5-yl-9-methyl-2,3-dihydro-1-benzoxepin-8-ol] | 126 | 74 | 237 | 442 | 152
Cc1cccc(C2=C(c3ccc(O[C@H]4CCN(CCCF)C4)cc3)c3ccc(O)cc3OCC2)c1C [Example 122, 4-(2,3-dimethylphenyl)-5-[4-[(3S)-1-(3-fluoropropyl)pyrrolidin-3-yl]oxyphenyl]-2,3-dihydro-1-benzoxepin-8-ol] | 0.3 | 91 | 24 | 41 | 3
Oc1ccc2c(c1Cl)OCCC(c1ccc3cc[nH]c3c1)=C2c1ccc(O[C@H]2CCN(CCCF)C2)cc1 [Example 123, 9-chloro-5-[4-[(3S)-1-(3-fluoropropyl)pyrrolidin-3-yl]oxyphenyl]-4-(1H-indol-6-yl)-2,3-dihydro-1-benzoxepin-8-ol] | 15 | 81 | 1430 | 2290 | 156
Oc1ccc2c(c1Cl)OCCC(c1ccc3c(c1)NCC3)=C2c1ccc(O[C@H]2CCN(CCCF)C2)cc1 [Example 125, 9-chloro-5-[4-[(3S)-1-(3-fluoropropyl)pyrrolidin-3-yl]oxyphenyl]-4-indolin-6-yl-2,3-dihydro-1-benzoxepin-8-ol] | 4 | 84 | 945 | 1340 | 190
Cc1c(F)cccc1C1=C(c2ccc(O[C@H]3CCN(CCCF)C3)cc2)c2ccc(O)cc2OCC1 [Example 126, 4-(3-fluoro-2-methyl-phenyl)-5-[4-[(3S)-1-(3-fluoropropyl)pyrrolidin-3-yl]oxyphenyl]-2,3-dihydro-1-benzoxepin-8-ol] | 0.3 | 91 | 55 | 94 | 5
CCOc1ccc(C2=C(c3ccc(O[C@H]4CCN(CCCF)C4)cc3)c3ccc(O)cc3OCC2)cn1 [Example 127, 4-(6-ethoxy-3-pyridyl)-5-[4-[(3S)-1-(3-fluoropropyl)pyrrolidin-3-yl]oxyphenyl]-2,3-dihydro-1-benzoxepin-8-ol] | 0.8 | 90 | 24 | 49 | 3
Oc1ccc2c(c1Cl)OCCC(c1cccc3c1CCN3)=C2c1ccc(O[C@H]2CCN(CCCF)C2)cc1 [Example 128, 9-chloro-5-[4-[(3S)-1-(3-fluoropropyl)pyrrolidin-3-yl]oxyphenyl]-4-indolin-4-yl-2,3-dihydro-1-benzoxepin-8-ol] | 14 | 72 | 933 | 1210 | 96
Cc1c(O)ccc2c1OCCC(c1cccc3[nH]ccc13)=C2c1ccc(O[C@H]2CCN(CCCF)C2)cc1 [Example 130, 5-[4-[(3S)-1-(3-fluoropropyl)pyrrolidin-3-yl]oxyphenyl]-4-(1H-indol-4-yl)-9-methyl-2,3-dihydro-1-benzoxepin-8-ol] | 18 | 73 | 777 | 1190 | 70
